One data set has as its target α4β2 subtype (Homo sapiens, UniProt P17787+P43681). As to the kind of experiment: In vitro pharmacology: antagonism at the α4β2 subtype. The class given is biochemical. The text has this:
(§1) Such disorders include substance abuse, tobacco use and weight gain that accompanies drug cessation.

Data set [1] concerns NNR subtypes affecting dopamine release. As to the kind of experiment: Antagonism of dopamine release. The class given is biochemical. The settings on record: in vitro. Here is the method:
Dopamine release was measured using the techniques described in U.S. Pat. No. 5,597,919 to Dull et al. Release is expressed as a percentage of release obtained with a concentration of (S)-(−)-nicotine resulting in maximal effects. Reported EC50 values are expressed in nM, and Emax values represent the amount released relative to (S)-(−)-nicotine on a percentage basis.
Antagonism of dopamine release can also be evaluated using the assays described in Gradyet al., “Characterization of nicotinic receptor mediated [3H]dopamine release from synaptosomes prepared from mouse striatum,” J. Neurochem. 59: 848-856 (1992) and Soliakov and Wonnacott, “Voltage-sensitive Ca^2+ channels involved in nicotinic receptor-mediated [3H]dopamine release from rat striatal synaptosomes,” J. Neurochem. 67:163-170 (1996).
as §1

In a further data set the test system is rats. As to the kind of experiment: Fourteen-day preclinical safety pharmacology study. Format: in vivo.

SMILES strings stand for the structures.

Chain of α4β2 subtype (P43681 29-627 limits assumed): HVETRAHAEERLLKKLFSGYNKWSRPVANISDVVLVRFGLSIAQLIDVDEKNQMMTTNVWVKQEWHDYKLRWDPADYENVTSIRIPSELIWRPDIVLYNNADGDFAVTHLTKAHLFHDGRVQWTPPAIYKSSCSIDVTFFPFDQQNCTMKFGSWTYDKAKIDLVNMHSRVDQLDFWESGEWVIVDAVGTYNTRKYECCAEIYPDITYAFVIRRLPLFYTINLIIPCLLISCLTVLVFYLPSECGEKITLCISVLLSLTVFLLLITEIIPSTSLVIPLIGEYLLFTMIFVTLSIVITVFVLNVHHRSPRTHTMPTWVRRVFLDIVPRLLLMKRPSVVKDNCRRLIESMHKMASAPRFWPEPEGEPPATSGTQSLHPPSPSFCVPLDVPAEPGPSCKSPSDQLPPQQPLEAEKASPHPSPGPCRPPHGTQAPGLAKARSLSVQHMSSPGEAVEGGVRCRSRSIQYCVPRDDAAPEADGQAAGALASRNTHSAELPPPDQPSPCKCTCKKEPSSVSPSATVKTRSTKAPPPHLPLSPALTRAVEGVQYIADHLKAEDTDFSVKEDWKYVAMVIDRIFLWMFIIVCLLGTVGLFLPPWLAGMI
Chain of α4β2 subtype (P17787 26-502): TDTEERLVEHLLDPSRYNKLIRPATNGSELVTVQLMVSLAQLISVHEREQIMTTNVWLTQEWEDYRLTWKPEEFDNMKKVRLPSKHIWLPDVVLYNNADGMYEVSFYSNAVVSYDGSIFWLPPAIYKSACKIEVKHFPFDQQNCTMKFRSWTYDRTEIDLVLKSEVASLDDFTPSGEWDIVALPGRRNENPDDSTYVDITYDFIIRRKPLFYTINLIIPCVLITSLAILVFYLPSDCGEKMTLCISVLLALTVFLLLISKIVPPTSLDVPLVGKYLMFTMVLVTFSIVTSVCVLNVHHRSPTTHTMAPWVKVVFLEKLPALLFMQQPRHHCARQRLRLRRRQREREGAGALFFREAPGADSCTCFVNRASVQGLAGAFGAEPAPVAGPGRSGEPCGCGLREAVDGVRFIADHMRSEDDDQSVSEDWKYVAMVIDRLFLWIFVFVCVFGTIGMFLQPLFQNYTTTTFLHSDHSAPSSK

For `Cl.Cl.c1cncc(N2CCC3(CCCN3)C2)c1` (stereo not drawn) [Sample 1, 7-(3-pyridyl)-1,7-diazaspiro[4.4]nonane dihydrochloride], the “Imax, antagonist at the α4β2 subtype” value at α4β2 subtype was 50%. In addition, the IC50 (commonly the concentration that gives 50% inhibition) at α4β2 subtype (read-out: IC50, antagonist at the α4β2 subtype) came out at 193 µM. Besides, the “Imax, antagonist at NNR subtypes affecting dopamine release” value in data set [1] is 67%. Moreover, the IC50 in data set [1] (read-out: IC50, antagonist at NNR subtypes affecting dopamine release) is 0.901 µM. In the data set on rats, the stimulant sensitization properties entry is on record as “without demonstrating stimulant sensitization properties” and the “weight gain in rats” value is reported as “reduced weight gain”.

For the origin of these results see patent US20060058328A1, “Use of N-aryl diazaspiracyclic compounds in the treatment of addiction” (priority 2004, published 2006).
